Test results as given in patent publication US11220534B2, “Treatment of neurological diseases” (Lancaster University Business Enterprises Limited, priority 2016, dated 2022).
Where no end group is shown, it is not given here. [ ]: non-standard residue; d: D form. Aib = CC(C)(N)C(=O)O

Tests used:
[1] = tested on: MPTP mouse model of Parkinson's disease; conditions: cited from earlier work
[2] = tested on: APP/PS1 mouse model of AD; conditions: 12 months old APP/PS1 mice; cited from earlier work
C57BL/6 mice given MPTP [3] = assay: Rotarod motor control test in the MPTP Parkinson mouse model; assay type: in vivo; conditions: 10 nmol/kg i.p. once daily for 2 weeks, FIG. 3, N=6 per group
Excerpt: (§1) A standard model to induce Parkinson like symptoms in mice is the injection of the chemical (MPTP) (Li et al., 2009). This chemical impairs or kills neurons in the brain that produce dopamine. The mice develop motor impairments, and the dopaminergic neurons in the brain are reduced in numbers and function. The enzyme tyrosine hydroxylase (TH) is required to synthesise dopamine. A loss of TH signifies a loss of dopamine production (Harkavyi et al., 2008).
Adult male C57BL/6 mice were given the dopaminergic toxin MPTP (20 mg/kg in 0.1 mL of PBS i.p. at 2-h intervals of 4 doses MPTP; Sigma) or vehicle (PBS) for one day. This treatment selectively affects dopaminergic neurons and induces Parkinson-like symptoms in mice.
The dose of peptide tested was 10 nmol/kg body weight. The peptides were administered by a once-daily intraperitoneal injection for 2 weeks. Saline injections were administered as a control. Six animals per group were injected with a peptide or a saline control.
The rotarod consists of a rotating pole that accelerates over time. Mice are placed on the rod, and motor skills are tested by accelerating the rotation. As the rotation increases, animals lose grip and fall on a cushion located below the rod. […] Each animal's endurance time was recorded, and the average was calculated. Data were analysed using a one-way ANOVA with post-hoc Bonferroni tests.

APP/PS1 transgenic mice [4] = assay: Immunohistochemical measurement of synaptic densities (synaptophysin) in the cortex of APP/PS1 transgenic mice; assay type: in vivo; conditions: 10 nmol/kg i.p. once daily for 8 weeks, FIG. 2, N=6 per group
Excerpt: (§2) Animal models have been developed to test novel drugs. A standard model for Alzheimer's disease is transgenic mice that express human mutated genes for amyloid production that are known to induce Alzheimer's disease in humans. These APP/PS1 transgenic mice recapitulate some of the symptoms of Alzheimer's disease such as the aggregation of amyloid in the brain, memory loss and the loss of synapses (Radde et al., 2006).
(§3) The APP/PS1 mice express human Swedish mutated APP and human mutated presenilin-1 which induce Alzheimer's Disease in humans.
(§4) The dose of peptide tested was 10 nmol/kg body weight. The peptides were administered by a once-daily intraperitoneal injection for 8 weeks. Saline injections were administered as a control. Six animals per group were injected with a peptide or a saline control.
Animals (6 per group) were perfused transcardially with 30 ml of ice-cold PBS and 30 ml of ice-cold 4% paraformaldehyde to postfix the brain. The brains were removed and placed in fresh 30% sucrose solution in PBS to cryoprotect tissue and cut at a thickness of 40 μm on a cryostat. Sections were chosen according to stereological rules, with the first section taken at random and every 5th section afterwards. Between 7 and 13 sections were analysed per brain. […]

C57BL/6 mice given MPTP [5] = assay: Immunohistochemistry for TH in the substantia nigra pars compacta, MPTP Parkinson mouse model; assay type: in vivo; conditions: 10 nmol/kg i.p. once daily for 2 weeks, FIG. 4, N=6 per group
Excerpt: as §1
Adult male C57BL/6 mice were given the dopaminergic toxin MPTP (20 mg/kg in 0.1 mL of PBS i.p. at 2-h intervals of 4 doses MPTP; Sigma) or vehicle (PBS) for one day. […]
Immunohistochemistry for TH in the Substantia Nigra Pars Compacta and the Striatum Six animals per group were analysed for expression of tyrosine hydroxylase (TH), a marker for dopamine production. Coronal brain sections (20 μm) from striatum (bregma […]) and SNpc (bregma […]) were analysed by immunohistochemistry using antibodies recognising TH.
Sections were cut on a cryostat and postfixed in 4% paraformaldehyde, washed in PBS, treated with 0.3% H2O2 in methanol for 20 min, and washed again. […] For each animal, three tissue sections from one level of striatum were stained and analysed for TH-positive fibre innervation. […] Two tissue sections from each level were quantified by immunohistochemistry. […]

APP/PS1 transgenic mice [6] = assay: Immunohistochemical measurement of beta-amyloid plaque load in the cortex of APP/PS1 transgenic mice; assay type: in vivo
Excerpt: as §2, §3, §4
Animals (6 per group) were perfused transcardially with 30 ml of ice-cold PBS and 30 ml of ice-cold 4% paraformaldehyde to postfix the brain. The brains were removed and placed in fresh 30% sucrose solution in PBS to cryoprotect tissue and cut at a thickness of 40 μm on a cryostat. Sections were chosen according to stereological rules, with the first section taken at random and every 5th section afterwards. Between 7 and 13 sections were analysed per brain.
Immunostaining techniques were used to assess the neuronal plaque load (anti beta-amyloid rabbit polyclonal antibody (1:200, rabbit polyclonal-Invitrogen 71-5800) and of synaptophysin (polyclonal rabbit anti-synaptophysin primary antibody, 1:2000, Abcam, Cambridge, UK) to measure the amount of synapses in the cortex. Brain samples were first exposed to 99% formic acid for 7 minutes and then washed 3 times for 10 minutes in TBS. Pre-treatment with 99% formic acid is known to drastically increase the detection of beta-Amyloid in formalin-fixed brain samples. Then samples were incubated in 0.3% H2O2 (Sigma Aldrich; Cat.-No.: 516813) in TBS for 30 minutes on the shaker to deplete endogenous peroxides activity, and were 3 times washed in TBS for 10 minutes afterwards.
To increase permeability of membranes in the brain tissue, samples were exposed to 0.3% Triton X-100 (Sigma Aldrich; Cat.-No.: 516813) in TBS for 10 minutes on the shaker. Unspecific proteinophilic binding in the tissue was saturated by incubating the samples with 5% goat serum (Gibco; Cat.-No.: 16210-064) in TBS for 30 minutes on the shaker.
A primary antibody against beta-Amyloid or synaptophysin was added and incubated overnight on the shaker at 4° C. The antibody was polyclonal and raised against a synthetic beta-Amyloid 1-43 peptide in rabbit. The primary antibody was used in a final dilution of 1 to 250 in TBS containing 2% goat serum and […]. […]

## lixisenatide
[1]
  motor impairment, chronic inflammation in the brain and loss of dopaminergic neurons induced by MPTP: good effects in preventing the motor impairment, chronic inflammation in the brain, and loss of dopaminergic neurons

## D-Ala^2-GIP
[2]
  amyloid plaque load: much reduced
  synaptic plasticity in area CA1 of the hippocampus and spatial memory formation: unimpaired
[1]
  motor impairment, chronic inflammation in the brain and loss of dopaminergic neurons induced by MPTP: protective and prevented the impairment of motor activity, the loss of dopaminergic neurons, loss of synapses and the chronic inflammation response induced by MPTP

## YXEGTFTSDYSIYLDKQAAXEFVNWLLAGGPSSGAPPPSKKKKKK-NH2 (Y[Aib]EGTFTSDYSIYLDKQAA[Aib]EFVNWLLAGGPSSGAPPPSKKKKKK-NH2) [DA4, No. 11; X=aminoisobutyric acid]
C57BL/6 mice given MPTP [3]
  impairment of motor skills (rotarod endurance time): protect mice from an impairment of motor skills induced by MPTP
APP/PS1 transgenic mice [4]
  synapse loss / synaptic densities in the cortex: protected from synapse loss
C57BL/6 mice given MPTP [5]
  MPTP-induced reduction of TH in the substantia nigra, pars compacta (protection of dopaminergic neurons): protected dopaminergic neurons at a greater rate than the single GIP and GLP-1 analogues
APP/PS1 transgenic mice [6]; 10 nmol/kg body weight, once-daily intraperitoneal injection for 8 weeks, FIG. 1, N=6 per group
  beta-amyloid plaque load in the cortex (% area positive for beta amyloid in cross sections of the brain cortex): reduces beta-amyloid plaque load
APP/PS1 transgenic mice [6]; 10 nmol/kg i.p. once daily for 8 weeks, FIG. 1
  beta-amyloid plaque load compared with the single GIP or GLP-1 analogues: superior to the single GIP or GLP-1 analogues
